“And” between values parts separate entries of the source, which are not always exact repeats. Equal values may be shown once.
Biological target: Coagulation factor X (Homo sapiens, UniProt P00742)
Assay: Inhibition of Coagulation factor Xa

Coagulation factor X, sequence (P00742 41-179 limits assumed): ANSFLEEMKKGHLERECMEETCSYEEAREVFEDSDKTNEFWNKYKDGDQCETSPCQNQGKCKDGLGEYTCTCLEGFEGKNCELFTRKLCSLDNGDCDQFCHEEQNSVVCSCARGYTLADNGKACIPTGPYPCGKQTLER
Coagulation factor X, sequence (P00742 235-488 limits assumed): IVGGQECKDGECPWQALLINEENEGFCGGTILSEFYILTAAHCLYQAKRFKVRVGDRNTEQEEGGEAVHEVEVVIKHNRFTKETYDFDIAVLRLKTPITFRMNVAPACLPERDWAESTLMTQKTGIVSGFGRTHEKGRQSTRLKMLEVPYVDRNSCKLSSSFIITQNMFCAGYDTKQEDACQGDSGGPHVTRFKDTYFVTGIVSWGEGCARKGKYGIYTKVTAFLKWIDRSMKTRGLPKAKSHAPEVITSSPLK

SMILES	Ki
N=C(N)c1cccc(Cn2c(C(N)=O)cc3c(O)cccc32)c1	7160 nM
C[n+]1ccc(CCNC(=O)c2cc3ccccc3n2Cc2cccc(C(=N)N)c2)cc1	1300 nM
COc1cccc2c1cc(C(=O)NCc1ccc(O)cc1)n2Cc1cccc(C(=N)N)c1	183 nM
COC(=O)c1cccc(CNC(=O)c2cc3c(O)cccc3n2Cc2cccc(C(=N)N)c2)c1	2040 nM
Cc1c(F)ccc2c1cc(C(=O)NCc1ccc([N+](C)(C)Cc3ccccc3)cc1)n2Cc1cccc(C(=N)N)c1	245 nM
COc1cc(CNC(=O)c2cc3c(O)cccc3n2Cc2cccc(C(=N)N)c2)cc(OC)c1	193 nM
Cc1cccc2c1cc(C(=O)NCC1CCC(C(=N)N)CC1)n2Cc1cccc(C(=N)N)c1 (centres undefined)	45 nM
C[N+](C)(C)c1ccc(CNC(=O)c2cc3cc(S(C)(=O)=O)ccc3n2Cc2cccc(C(=N)N)c2)cc1	226 nM
COC(=O)c1c(C(=O)OC)n(Cc2cccc(C(=N)N)c2)c2ccccc12	7500 nM
N=C(N)c1cccc(Cn2c(C(=O)NCc3ccccn3)cc3c(O)cccc32)c1	3330 nM
N=C(N)c1cccc(Cn2c(C(=O)NCCc3ccc(Cl)c(Cl)c3)cc3c(O)cccc32)c1	918 nM
C#CC[N+](C)(C)c1ccc(CNC(=O)c2cc3cc(F)ccc3n2Cc2cccc(C(=N)N)c2)cc1	76 nM
COc1cccc2c1cc(C(=O)NCc1ccc([N+](C)(C)C)cc1)n2Cc1cccc(C(=N)N)c1	62 nM
N=C(N)c1cccc(Cn2c(C(=O)NCc3cccc(C(F)(F)F)c3)cc3c(O)cccc32)c1	476 nM
N=C(N)c1cccc(Cn2c(C(=O)NCc3ccnc4ccccc34)cc3c(O)cccc32)c1	300 nM
Cc1cccc2c1cc(C(=O)NCc1cccc3ccccc13)n2Cc1cccc(C(=N)N)c1	96 nM
C[C@H](NC(=O)c1cc2cc(OCc3ccccc3)ccc2n1Cc1cccc(C(=N)S)c1)c1ccccc1	4830 nM
N=C(N)c1cccc(Cn2c(C(N)=O)cc3ccccc32)c1	5650 nM
COc1ccc2cc(C(=O)NCc3ccc([N+](C)(C)C)cc3)n(Cc3cccc(C(=N)N)c3)c2c1	1760 nM
N=C(N)c1cccc(Cn2c(C(=O)NNS(=O)(=O)c3ccccc3)cc3c(O)cccc32)c1	7050 nM
COc1cccc2c1cc(C(=O)NCc1ccc(-c3cc[n+](C)cc3)cc1)n2Cc1cccc(C(=N)N)c1	110 nM
COc1cccc2c1cc(C(=O)NCCc1ccc(O)cc1)n2Cc1cccc(C(=N)N)c1	970 nM
C[N+]1(C)CCC(C(NC(=O)c2cc3ccccc3n2Cc2cccc(C(=N)N)c2)c2ccc3cc(Cl)ccc3c2)CC1 (centres undefined)	1310 nM
CN(C)c1ccc(CNC(=O)c2cn(Cc3cccc(C(=N)N)c3)c3ccccc23)cc1	2190 nM

SMILES	Ki
N=C(N)c1cccc(Cn2c(C(=O)NCc3cccc(NC(N)=O)c3)cc3c(O)cccc32)c1	180 nM
N=C(N)c1cccc(CNC(=O)c2cc3cc(O)ccc3n2Cc2cccc(C(=N)N)c2)c1	77 nM
N=C(N)c1cccc(COC(=O)c2cc3cc(OCc4ccccc4)ccc3n2Cc2cccc(C(=N)N)c2)c1	61 nM
Cc1cccc2c1cc(C(=O)NCc1cccc(-c3ccccc3)c1)n2Cc1cccc(C(=N)N)c1	325 nM
Cc1cccc2c1cc(C(N)=O)n2Cc1cccc(C(=N)N)c1	7910 nM
N=C(N)c1cccc(Cn2c(C(=O)NCc3cccc(C(=O)O)c3)cc3c(O)cccc32)c1	10000 nM
C[n+]1ccc(CNC(=O)c2cc3ccccc3n2Cc2ccc(C(=N)N)cc2)cc1	600 nM
C[n+]1ccc(CNC(=O)c2cc3cc(F)ccc3n2Cc2cccc(C(=N)N)c2)cc1	360 nM
N=C(N)c1cccc(Cn2c(C(=O)NCC34C[C@H]5C[C@@H](C3)C[C@@H](C4)C5)cc3c(O)cccc32)c1	274 nM
CCN(Cc1cc[n+](C)cc1)C(=O)c1cc2ccccc2n1Cc1cccc(C(=N)N)c1	500 nM
C[N+](C)(C)c1ccc(CNC(=O)c2cc3cc(N)ccc3n2Cc2cccc(C(=N)N)c2)cc1	60 nM
COC(=O)c1c(C)c2ccccc2n1Cc1cccc(C(=N)N)c1	8800 nM
N=C(N)c1cccc(Cn2c(C(=O)NCc3cccc(Br)c3)cc3c(O)cccc32)c1	117 nM
N=C(N)c1cccc(Cn2c(C(=O)NCCNc3cccc4ccccc34)cc3c(O)cccc32)c1	318 nM
C[n+]1cccc(CC(NC(=O)c2cc3ccccc3n2Cc2cccc(C(=N)N)c2)C(N)=O)c1 (centres undefined)	3900 nM
N=C(N)c1cccc(CNC(=O)c2cc3cc(N)ccc3n2Cc2cccc(C(=N)N)c2)c1	51 nM
Cc1cccc2c1cc(C(=O)NCc1ccc(O)cc1)n2Cc1cccc(C(=N)N)c1	1610 nM
N=C(N)c1cccc(Cn2c(C(=O)NCc3cccc(C(N)=O)c3)cc3ccccc32)c1	240 nM
N=C(N)c1cccc(Cn2c(C(=O)NCc3cccc4ccccc34)cc3c(O)cccc32)c1	68 nM
Cc1cccc2c1cc(C(=O)OCc1cccc(C(=N)N)c1)n2Cc1cccc(C(=N)N)c1	44 nM
N=C(N)c1cccc(CNC(=O)c2cc3cc(OCc4ccccc4)ccc3n2Cc2cccc(C(=N)N)c2)c1	133 nM
CN(CCNC(=O)c1cc2c(O)cccc2n1Cc1cccc(C(=N)N)c1)c1cccc2ccccc12	2470 nM
COc1ccc(CNC(=O)c2cc3c(O)cccc3n2Cc2cccc(C(=N)N)c2)cc1	1360 nM
N=C(N)c1cccc(Cn2c(C(=O)NCCc3ccc(Cl)cc3)cc3c(O)cccc32)c1	1560 nM

SMILES	Ki
C[N+](C)(C)c1ccc(CNC(=O)c2cc3c(Br)cccc3n2Cc2cccc(C(=N)N)c2)cc1	24 nM
CCOC(=O)c1cc2c(C)cccc2n1Cc1cccc(C(=N)N)c1	948 nM
N=C(N)c1cccc(Cn2c(C(=O)NCc3cccc(I)c3)cc3c(O)cccc32)c1	42 nM
N=C(N)c1cccc(CNC(=O)c2cc3ccccc3n2Cc2cccc(C(=N)N)c2)c1	26 nM and 19 nM
CSC(=O)c1cc2c(O)cccc2n1Cc1cccc(C(=N)N)c1	2990 nM
CCOC(=O)c1cc2ccccc2n1Cc1cccc(C(=N)N)c1	4200 nM
COc1cccc2c1cc(C(=O)NC(c1ccccc1)c1ccncc1)n2Cc1cccc(C(=N)N)c1 (centres undefined)	6790 nM
Cc1cccc2c1cc(C(=O)NCc1ccc(N(C)C)cc1)n2Cc1cccc(C(=N)N)c1	1310 nM
C[N+](C)(C)c1ccc(CNC(=O)c2cc3cc(Br)ccc3n2Cc2cccc(C(=N)N)c2)cc1	134 nM
C[N+](C)(C)c1ccc(CNC(=O)c2cc3cc(F)ccc3n2Cc2cccc(C(=N)N)c2)cc1	66 nM and 90 nM
CN1CCC([C@@H](NC(=O)c2cc3ccccc3n2Cc2cccc(C(=N)N)c2)c2ccc3cc(Cl)ccc3c2)CC1	610 nM
Cc1cc(C)cc(CNC(=O)c2c(Br)c3ccccc3n2Cc2cccc(C(=N)N)c2)c1	13 nM
C[N+](C)(C)c1ccc(CNC(=O)c2cn(Cc3cccc(C(=N)N)c3)c3ccccc23)cc1	1820 nM
N=C(N)c1cccc(Cn2c(C(=O)NCc3ccc4ccccc4c3)cc3c(O)cccc32)c1	1720 nM
COC(=O)c1c(C(=O)NCc2cc[n+](C)cc2)n(Cc2cccc(C(=N)N)c2)c2ccccc12	350 nM
N=C(N)c1cccc(Cn2c(C(=O)NCc3ccc(Cl)c(Cl)c3)cc3c(O)cccc32)c1	841 nM
N=C(N)c1cccc(Cn2c(C(=O)NCc3ccccc3Cl)cc3c(O)cccc32)c1	1200 nM
N=C(N)c1cccc(Cn2c(C(=O)NCC3CCCCC3)cc3c(O)cccc32)c1	1110 nM
N=C(N)c1cccc(Cn2c(C(=O)NCCc3ccc(Br)cc3)cc3c(O)cccc32)c1	1630 nM
Cc1cccc2c1cc(C(=O)NCc1ccc([N+](C)(C)C)cc1)n2Cc1cccc(C(=N)N)c1	16 nM and 14 nM
Cc1cccc2c1cc(C(=O)NCc1cc[n+]([O-])cc1)n2Cc1cccc(C(=N)N)c1	14500 nM
N=C(N)c1cccc(CNC(=O)c2cn(Cc3cccc(C(=N)N)c3)c3ccccc23)c1	1230 nM
CN(C)c1ccc(CNC(=O)c2cc3cc(F)ccc3n2Cc2cccc(C(=N)N)c2)cc1	3520 nM
N=C(N)c1cccc(Cn2c(C(=O)NCc3ccccc3)cc3c(O)cccc32)c1	2030 nM

SMILES	Ki
N=C(N)c1cccc(Cn2c(C(=O)NCc3cc(Cl)cc(Cl)c3)c(Br)c3ccccc32)c1	85 nM
CC(NC(=O)c1cc2ccccc2n1Cc1cccc(C(=N)N)c1)c1cc[n+](C)cc1 (centres undefined)	92 nM
C=CC[N+](C)(C)c1ccc(CNC(=O)c2cc3cc(F)ccc3n2Cc2cccc(C(=N)N)c2)cc1	141 nM
N=C(N)c1ccc(CNC(=O)c2cn(Cc3cccc(C(=N)N)c3)c3ccccc23)cc1	1120 nM
C[n+]1ccc(CNC(=O)c2cc3c(O)cccc3n2Cc2cccc(C(=N)N)c2)c2ccccc21	50 nM
C[N+](C)(C)c1ccc(CNC(=O)c2cc3c(OCc4ccccc4)cccc3n2Cc2cccc(C(=N)N)c2)cc1	84 nM
COc1cccc2c1cc(C(=O)NCCc1cc[n+](C)cc1)n2Cc1cccc(C(=N)N)c1	160 nM
N=C(N)c1cccc(Cn2c(C(=O)NCc3ccc(Cl)cc3)cc3ccccc32)c1	3600 nM
COc1cccc(CNC(=O)c2cc3c(O)cccc3n2Cc2cccc(C(=N)N)c2)c1	308 nM
CC[N+](C)(C)c1ccc(CNC(=O)c2cc3cc(F)ccc3n2Cc2cccc(C(=N)N)c2)cc1	103 nM
COC(=O)CN(Cc1cc[n+](C)cc1)C(=O)c1cc2ccccc2n1Cc1cccc(C(=N)N)c1	170 nM
N=C(N)c1cccc(Cn2c(C(=O)NCCc3ccc(Cl)cc3Cl)cc3c(O)cccc32)c1	840 nM
COc1ccc2c(cc(C(=O)NCc3ccncc3)n2Cc2cccc(C(=N)N)c2)c1OC	5310 nM
C[N+](C)(C)c1ccc(CNC(=O)c2cc3cc([N+](=O)[O-])ccc3n2Cc2cccc(C(=N)N)c2)cc1	144 nM
N=C(N)c1cccc(Cn2c(C(=O)NC(c3ccccc3)c3ccncc3)cc3ccccc32)c1 (centres undefined)	7030 nM
Cc1c(C(=O)NCc2cc[n+](C)cc2)n(Cc2cccc(C(=N)N)c2)c2ccccc12	170 nM
N=C(N)c1cccc(Cn2c(C(=O)NCc3cccc(F)c3)cc3c(O)cccc32)c1	720 nM
N=C(N)c1cccc(Cn2c(C(=O)NCc3ccc4ccc5cccc6ccc3c4c56)cc3c(O)cccc32)c1	2060 nM
C[N+](C)(C)c1ccc(CNC(=O)c2cc3ccccc3n2Cc2cccc(C(=N)N)c2)cc1	400 nM
Cc1cccc2c1cc(C(=O)NCC1CCN(C(=N)N)CC1)n2Cc1cccc(C(=N)N)c1	25 nM
N=C(N)c1cccc(Cn2c(C(=O)NCc3cc(F)cc(F)c3)cc3c(O)cccc32)c1	191 nM
Cc1cccc2c1cc(C(=O)NCc1ccnc3ccccc13)n2Cc1cccc(C(=N)N)c1	173 nM
